Structure (SMILES)	melting point [°C]
Cc1cccc(Cl)c1C(=O)N[C@@H](Cc1ccc(-c2cccn(C)c2=O)cc1)C(=O)O [Example 30, N-[(2-chloro-6-methylphenyl)carbonyl]-4-(1-methyl-2-oxo-3-pyridinyl)-L-phenylalanine]	204 to 210
CCc1cccc(C)c1C(=O)N[C@@H](Cc1ccc(-c2c(C(F)(F)F)cc(C)n(C)c2=O)cc1)C(=O)O [Example 34, N-[(2-ethyl-6-methylphenyl)carbonyl]-4-[1,6-dimethyl-4-(trifluoromethyl)-2-oxo-3-pyridinyl]-L-phenylalanine]	219 to 221
Cc1cccc(Cl)c1C(=O)N[C@@H](Cc1ccc(-c2c(C(F)(F)F)cc(C)n(C)c2=O)cc1)C(=O)O [Example 36, N-[(2-chloro-6-methylphenyl)carbonyl]-4-[1,6-dimethyl-4-(trifluoromethyl)-2-oxo-3-pyridinyl]-L-phenylalanine]	220 to 223
COCCC1(C(=O)N[C@@H](Cc2ccc(-c3c(C(F)(F)F)cc(C)n(C)c3=O)cc2)C(=O)O)CCCC1 [Example 37, N-[[1-(2-methoxyethyl)cyclopentyl]carbonyl]-4-[1,6-dimethyl-4-(trifluoromethyl)-2-oxo-3-pyridinyl]-L-phenylalanine]	181 to 183

From patent publication US6916933B2, “4-pyridinyl-n-acyl-l-phenylalanines” (Hoffman-La Roche Inc., priority 1999, dated 2005)
